Laboratory results published in patent US20230066648A1, “METHOD FOR INDUCING TRANSDIFFERENTIATION OF SOMATIC CELLS INTO MAMMARY EPITHELIAL CELLS IN VITRO USING SMALL MOLECULE COMPOUND” (GUANGXI UNIVERSITY, priority 2019, published 2023).
“Also recorded” adds a separate entry of the source.

Tested on: ear margin fibroblasts (GEFs) of goat
Test: induction of transdifferentiation of fibroblasts into mammary epithelial cells with induction medium, cell morphology
Type: cell-based
Settings: for transdifferentiation of fibroblasts into mammary epithelial cells with the inhibitor alone: 8 d, 10 μM SB431542, 5 μM SB525334, 1 μM LDN193189 induction medium alone
Method: 1. The ear margin fibroblasts (GEFs) of goat were isolated and cultured by a tissue adherence method to provide cell materials for subsequent induction.
2. The fibroblasts were inoculated into a 60 mm cell culture dish at a density of 5×10^5, and after culturing for 8 h to 24 h in the high-glucose DMEM+10% FBS (volume percentage), the induction medium BFRTV was replaced, and then cultured at 37° C. for 8 d in a 5% CO2 incubator, where the medium was changed every two days.
3. When cultured to the 8th day, CiMECs can be subcultured and inoculated onto a plate pretreated with Matrix (a volume ratio of Matrix to gelatin was 1:50), and then cultured in a mammary epithelial cell medium, when the cell confluence reached about 90%, the cells were subcultured or frozen for subsequent detection.
Taking the ear margin fibroblasts of Guanzhong dairy goat as an experimental object, the concentration of five small molecule compounds currently used was adjusted, and the concentration of BFRTV was adjusted as a whole under the condition that the basal solution remained unchanged.

Compound	transdifferentiation of fibroblasts into mammary epithelial cells with the inhibitor alone	induction of mammary epithelial cells with Repsox alone (R induction medium) (R induction medium, no other small molecule)
c1ccc2c(-c3cnn4cc(-c5ccc(N6CCNCC6)cc5)cnc34)ccnc2c1 [LDN193189]	the fibroblasts can be induced into mammary epithelial cells; also recorded: could still induce the transdifferentiation of fibroblasts into mammary epithelial cells	–
Cc1cccc(-c2[nH]ncc2-c2ccc3ncccc3n2)n1 [Repsox]	–	mammary epithelial cells (CiMECs) similar to those by BFRTV induction medium were obtained
NC(=O)c1ccc(-c2nc(-c3ccc4c(c3)OCO4)c(-c3ccccn3)[nH]2)cc1 [SB431542]	the fibroblasts can be induced into mammary epithelial cells; also recorded: could still induce the transdifferentiation of fibroblasts into mammary epithelial cells	–
Cc1cccc(-c2[nH]c(C(C)(C)C)nc2-c2ccc3nccnc3c2)n1 [SB525334]	the fibroblasts can be induced into mammary epithelial cells; also recorded: could still induce the transdifferentiation of fibroblasts into mammary epithelial cells	–
